The text below walks through data of paper PMC4623604, “Discovery of Small Molecules that Inhibit the Disordered Protein, p27^Kip1” (Scientific Reports, 2015).

Data set [1] concerns the target T1, p27-KID (Homo sapiens, UniProt P46527).
T1 construct: 6xHis (N, cleaved yes); made in house; host or cells: E. coli (pET28a)
The experiment in a line: NMR fragment screening and 2D 1H-15N HSQC chemical shift perturbation mapping. It is filed as binding. The arrangement: key to Binding Group (site of chemical shift perturbations in p27-KID): Molecules in Group 1 bound to a localized region, F87YY89; molecules in Group 2 bound to this region as well as two others containing two W residues (W60 and W76). The note with it: 100 μM 15N-p27-KID; for chemical shift perturbations in 2D HSQC spectra of p27-KID: titrated to 30-fold molar excess (3 mM). An excerpt: We used one-dimensional (1D) ^1H WaterLOGSY[35] and STD[36] […] Fragment molecules were selected from either a commercial library (1,100 compounds from the Ro3 collection, Maybridge/Thermo Fisher Scientific) or an in-house library of 1,222 compounds based on the “Rule of Three”[40] and other criteria (see Methods). […] Binding sites for these compounds were identified by titration into ^15N-p27-KID and analysis of two-dimensional (2D) ^1H-^15N HSQC spectra. […] We termed these molecules Groups 1 and 2, respectively (Fig. 1b,c); representative ^1H CSP histograms are shown in Fig. 1d,e, and ^15N CSPs are presented in Suppl. Fig. 2. Data for all other small molecules are shown in Suppl. Fig. 3.
Screening and validation NMR experiments were performed at 298 K (25 °C) using either a Varian Inova 600 MHz spectrometer equipped with a triple resonance (HCN) room temperature gradient probe or a Bruker Avance 600 MHz spectrometer equipped with TCI cryogenic gradient probe and a SampleJet sample changer. Fragment molecules were initially analyzed as pools of five molecules dissolved at 10 mM each in DMSO-D6. […] For initial fragment screening experiments, one-dimensional (1D) ^1H- and WaterLOGSY[35] NMR spectra were recorded for compound pools without and with protein. […] DMSO-D6 was added to maintain a constant concentration (2% vol/vol). […] Tryptophan and tyrosine, respectively, were titrated into ^15N-p27-KID (100 μM) up to 3 mM. Three-dimensional (3D) backbone triple-resonance experiments to establish resonance assignments for the p27 constructs were performed using the Bruker Avance 600 MHz spectrometer. […] Fig. 12b,c and d,e, respectively. 2D ^1H-^15N TROSY-HSQC NMR experiments with ^2H/^13C/^15N-p27-D2/Cdk2/cyclin A and SJ403 have been recorded at 308 K (35 °C). 2D ^1H-^15N HSQC experiments of representative fragment hits (1 mM of SJ319843, group 1 and SJ403, group 2, respectively) with ^15N-p21-KID (20 μM) were recorded at 298 K using a Bruker Avance 600 MHz spectrometer. NMR spectra were processed using Bruker Topspin software and analyzed using computer-aided resonance assignment (CARA) software.
Chemical shift perturbations are generally quantified as combined ^1H and ^15N chemical shift values. […] Thus, the use of a combined chemical shift values would mask the effects of compound binding. […] Thus, the assessment of statistical significance was based upon whether a particular CSP value was larger than, i) the experimental spectral resolution in the given dimension (^1H or ^15N) and ii) the quantity, Δδave + 2σ, for that dimension.

Data set [2] deals with T1, p27-KID. The experiment in a line: NMR 2D 1H-15N in-phase HSQC titration, binding affinity for p27:small molecule interactions. Particulars: sixteen-point titration, 100 μM 15N-p27-KID, inhibitor 0-3 mM. How it is done: 1D and 2D NMR analysis of these molecules led to the identification of 15 additional p27-D2-binding compounds (six with Group 1-like binding features and nine with Group 2-like features; Suppl. Fig. 3b and Suppl. Table 1b).
Sixteen point titrations of representative fragment hits from Group 1 and Group 2 (SJ572710 and SJ572403, respectively) into ^15N-p27-KID (100 μM) were recorded using an adopted “in-phase” 2D ^1H-^15N HISQC with proton decoupling during ^15N chemical shift labeling achieved with a WALTZ16 composite pulse with an amplitude of 7.1 kHz[54][55]. All experiments were collected at a Bruker Avance 800 MHz spectrometer equipped with TCI cryogenic gradient probe. The following molar ratios of ^15N-p27-KID (100 μM) to inhibitor were used: 1:0, 1:0.1, 1:1.5, 1:3, 1:4.5, 1:6, 1:7.5, 1:9, 1:10.5, 1:12, 1:15, 1:18, 1:21, 1:24, 1:27 and 1:30. Each spectrum was recorded with 256 (t1,max = 31.0 ms) and 1024 (t2,max = 106.5 ms) complex points in the ^15N and ^1H dimensions, respectively, with eight transients collected per point. The spectral resolution of the ^1H and ^15N dimensions was 2.4 and 1.7 Hz, respectively. […] The data was processed using the NMRPipe package[56] and analyzed using in-house scripts written in Python using the Scipy computing libraries and Mathematica (Wolfram Research). […]

Data set [3] addresses T2, Cdk2/cyclin A (Homo sapiens, UniProt P24941).
T2 construct: Full length human Cdk2, active Cdk2 (phosphorylated at threonine 160); truncated human cyclin A (residues 173–432); made in house
Briefly: Cdk2/cyclin A kinase activity assay (Histone H1 substrate). It is filed as biochemical. As to the method:
Cdk2/Cyclin A (200 pM) was mixed with Histone H1 (15 μM; EMD Millipore), p27-D2 (200 nM) and varied amounts of lyophilized SJ403 and incubated overnight at 4 °C. The effect of the SJ403 compound on Cdk2 activity was determined by performing similar experiments in the absence of p27-D2. Subsequently, ATP (50 μM total concentration, of which 6 μCi γ ^32P-ATP (PerkinElmer, Inc)) was added to each reaction and further incubated for 35 minutes at 30 °C. […] The sample buffer contained 20 mM HEPES pH 7.3, 25 mM sodium β-glycerolphosphate, 15 mM MgCl2, 16 mM EGTA, 0.5 mM Na3VO4 and 10 mM DTT. The reactions were quenched by addition of SDS-gel loading buffer (5 μL) and then analyzed by SDS-PAGE (10 μL). The gels were dried at 70 °C under vacuum and a phosphoimager (GE Healthcare, Piscataway, NJ) was used to quantify the ^32P-Histone H1 bands. IC50 values were determined by curve fitting using KaleidaGraph software. Experiments were performed in triplicate and mean IC50 and standard deviations of the mean values are reported.

In data set [4] the target is T2, Cdk2/cyclin A. Briefly: Fluorescence anisotropy analysis of Cdk2/cyclin A binding to p27-D2-FL. The note with it: Alexa Fluor 488 labeled p27-D2. As to the method: Figure 4 Fluorescence anisotropy analysis of displacement of p27-D2-FL from Cdk2/cyclin A by SJ403. (a) Fluorescence anisotropy analysis of Cdk2/cyclin A binding to p27-D2-FL. The starting condition (20 nM p27-D2-FL, 300 nM Cdk2/cyclin A) for assessing the effect of fragment hit SJ403 on p27 function is represented as the red circle on the binding isotherm. (b) Titration of SJ403 (0–3 mM) caused the displacement of p27-D2 from Cdk2/cyclin A, resulting in a decrease in fluorescence anisotropy values. Experiments were performed in triplicate and average values and the standard deviations of the means are shown.
The p27-D2-C99S-R93C mutant was conjugated with Alexa Fluor488-C5-Maleimide (Life Technologies, p27-D2-FL) in buffer containing 20 mM Na phosphate, pH7.3, 20 mM NaCl according to the manufacturer’s protocol. The conjugated protein was further purified by reverse-phase high performance liquid chromatography (HPLC) using a C4 column (Vydac) and 0.1% trifluoroacetic acid-containing water/acetonitrile solvent system. […] Fluorescence anisotropy measurements were performed at 25 °C on a Horiba Fluorolog 3 spectrofluorometer. […] All samples have been incubated overnight in the dark at 4 °C prior to fluorescence measurements. Fluorescence anisotropy binding data was analyzed using KaleidaGraph. […]
A general note: Polarisation of emitted light reports the rotation of a fluorescent probe.

T1 sequence (P46527 22-105): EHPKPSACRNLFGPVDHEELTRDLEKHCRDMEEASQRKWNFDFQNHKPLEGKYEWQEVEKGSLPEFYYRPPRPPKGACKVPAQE

Consider `O=c1oc2cc(OCCO)ccc2c2c1CCCC2` [SJ710], for which the “Binding Group (site of chemical shift perturbations in p27-KID)” value in data set [1] (2D 1H-15N HSQC) was “Group 1”. In data set [2], the Kd (as a rule, the free concentration of one partner at which half of the binding sites on the other are occupied at equilibrium, for simple one-to-one binding) was 4800 ± 1300 µM.

For the compound “p27-D2: D2 sub-domain of p27, residues 58-105 of human p27 (RKWNFDFQNHKPLEGKYEWQEVEKGSLPEFYYRPPRPPKGACKVPAQE; UniProt P46527 58-105, looked up, fragment)”, the IC50 in data set [3] (200 pM Cdk2/cyclin A, Histone H1 substrate, read-out: IC50, inhibition of Cdk2/cyclin A) was 0.152 ± 0.039 µM. The “Cdk2 kinase activity maintained (of full kinase activity)” value in data set [3] (200 nM p27-D2, 200 pM Cdk2/cyclin A, before SJ403) was ~ 13%. The compound also registered a Kd in data set [4] of 0.073 ± 0.008 µM.

As for `N[C@@H](Cc1ccc(O)cc1)C(=O)O` [tyrosine, reference compound], the “chemical shift perturbations in 2D HSQC spectra of p27-KID” value in data set [1] is “neither aromatic amino acid cause chemical shift perturbations”.

As for `N[C@@H](Cc1c[nH]c2ccccc12)C(=O)O` [tryptophan, reference compound], in data set [1], the “chemical shift perturbations in 2D HSQC spectra of p27-KID” value is given as “neither aromatic amino acid cause chemical shift perturbations”.
